In ChEMBL document CHEMBL1201862, “PubChem BioAssay data set” (2004):
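Results reflect a 48-hour exposure of cells in 96-well plates to compound at five concentrations. At the GI50, growth is halved.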 The source made the active and inactive calls. Cut-off read from the data, not from the text of the source: active = GI50 up to about 1.1 µM and inactive = higher.

Columns and labels:
Test in all cases: growth of human tumour cells (NCI), 48 h
COLO 205 = system: COLO 205
SN12C = system: SN12C
NCI-H226 = system: NCI-H226
SK-MEL-5 = system: SK-MEL-5
SK-MEL-2 = system: SK-MEL-2
SK-MEL-28 = system: SK-MEL-28
SW-620 = system: SW-620
SF-539 = system: SF-539
SK-OV-3 = system: SK-OV-3
BT-549 = system: BT-549
OVCAR-8 = system: OVCAR-8
HT-29 = system: HT-29
K562 = system: K562
KM12 = system: KM12
LOX IMVI = system: LOX IMVI
Malme-3M = system: Malme-3M
ACHN = system: ACHN
MCF7 = system: MCF7
EKVX = system: EKVX
NCI-H460 = system: NCI-H460

Row | SMILES | GI50 (COLO 205) | GI50 (SN12C) | GI50 (NCI-H226) | GI50 (SK-MEL-5) | GI50 (SK-MEL-2) | GI50 (SK-MEL-28) | GI50 (SW-620) | GI50 (SF-539) | GI50 (SK-OV-3) | GI50 (BT-549) | GI50 (OVCAR-8) | GI50 (HT-29) | GI50 (K562) | GI50 (KM12) | GI50 (LOX IMVI) | GI50 (Malme-3M) | GI50 (ACHN) | GI50 (MCF7) | GI50 (EKVX) | GI50 (NCI-H460)
1 | Cc1ccc(/C=C2\N=C(N3CCCC(CO)C3)NC2=O)cc1 (stereo not drawn) | > 100 µM (inactive) | > 100 µM (inactive) | > 100 µM (inactive) | > 100 µM (inactive) | > 100 µM (inactive) | > 100 µM (inactive) | > 100 µM (inactive) | > 100 µM (inactive) | > 100 µM (inactive) | > 100 µM (inactive) | > 100 µM (inactive) | > 100 µM (inactive) | > 100 µM (inactive) | > 100 µM (inactive) | > 100 µM (inactive) | > 100 µM (inactive) | > 100 µM (inactive) | > 100 µM (inactive) | > 100 µM (inactive) | –
2 | C=Cc1nc(C#N)c(N)o1 | > 100 µM (inactive) | > 100 µM (inactive) | > 100 µM (inactive) | > 100 µM (inactive) | > 100 µM (inactive) | > 100 µM (inactive) | > 100 µM (inactive) | > 100 µM (inactive) | > 100 µM (inactive) | > 100 µM (inactive) | > 100 µM (inactive) | > 100 µM (inactive) | > 100 µM (inactive) | > 100 µM (inactive) | > 100 µM (inactive) | > 100 µM (inactive) | – | > 100 µM (inactive) | > 100 µM (inactive) | > 100 µM (inactive)
3 | C=CCc1cc(C(Cc2ccccc2)NC(C)C)cc(OCc2ccccc2)c1OCc1ccccc1 (stereo not drawn) | 17.3 µM (inactive) | 15.6 µM (inactive) | 17.7 µM (inactive) | 16.6 µM (inactive) | 18.6 µM (inactive) | 16.4 µM (inactive) | 18.2 µM (inactive) | 15.2 µM (inactive) | 14 µM (inactive) | 17.3 µM (inactive) | 17 µM (inactive) | 15.1 µM (inactive) | 16.8 µM (inactive) | 20.7 µM (inactive) | 14.8 µM (inactive) | 15.5 µM (inactive) | 16.9 µM (inactive) | 17.3 µM (inactive) | 16.2 µM (inactive) | 15 µM (inactive)
4 | CCCC(O)[C@@]1(CC)CC(C)C(O)(C2(C)C[C@H](C)[C@@H](C(CC)C(=O)C(C)[C@@H](O)[C@H](C)C3OC(O)(C(CC)C(=O)O)[C@@H](C)C(O)C3CC)O2)O1 (stereo partly drawn) | 0.123 µM (active) | 0.12 µM (active) | 1.1 µM (active) | 0.219 µM (active) | 0.531 µM (active) | 0.49 µM (active) | 0.776 µM (active) | 0.056 µM (active) | 2.15 µM (inactive) | 0.0512 µM (active) | 0.444 µM (active) | 0.557 µM (active) | 0.0955 µM (active) | 0.451 µM (active) | 0.19 µM (active) | 0.0982 µM (active) | 0.521 µM (active) | 0.461 µM (active) | 0.395 µM (active) | 0.191 µM (active)
